In patent publication US20190322676A1, “CERAMIDE GALACTOSYLTRANSFERASE INHIBITORS FOR THE TREATMENT OF DISEASE” (BioMarin Pharmaceutical Inc., priority 2016, published 2019):
Structures can show the parent of a compound that is named as a salt.

What follows are compounds tested against T1, human CGT (ceramide galactosyltransferase), CHO/CGT lysate (Homo sapiens, UniProt Q16880) (assay: CGT enzyme assay, RapidFire/MS/MS readout with 0.01% Tween added (Table 1 ranges with two asterisks **)). Conditions: CGT enzymatic assay; range with two asterisks (**): RapidFire/MS/MS method with 0.01% Tween added.
T1 construct: Full-length human CGT cDNA was cloned into the BamH1/Xho1 site of pcDNA3.1 (+); expressed in transfected cells; host or cells: Chinese hamster ovary (CHO) cells; lysate prepared with M-PER
T1 sequence (Q16880 21-541): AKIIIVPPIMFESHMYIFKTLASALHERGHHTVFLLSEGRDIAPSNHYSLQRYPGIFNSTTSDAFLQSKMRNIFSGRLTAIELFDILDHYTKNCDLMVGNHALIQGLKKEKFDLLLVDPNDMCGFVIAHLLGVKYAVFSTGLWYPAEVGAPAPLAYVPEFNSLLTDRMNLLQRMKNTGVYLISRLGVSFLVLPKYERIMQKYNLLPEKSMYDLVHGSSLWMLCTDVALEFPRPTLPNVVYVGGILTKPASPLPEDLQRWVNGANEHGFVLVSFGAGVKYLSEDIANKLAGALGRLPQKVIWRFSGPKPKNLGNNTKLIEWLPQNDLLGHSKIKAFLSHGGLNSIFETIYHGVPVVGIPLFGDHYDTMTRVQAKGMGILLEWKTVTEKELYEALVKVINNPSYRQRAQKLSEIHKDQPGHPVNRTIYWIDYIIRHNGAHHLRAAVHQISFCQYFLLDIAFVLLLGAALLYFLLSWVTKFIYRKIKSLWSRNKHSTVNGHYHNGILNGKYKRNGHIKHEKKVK
Format: biochemical
Description: Full-length human CGT cDNA was cloned into the BamH1/Xho1 site of pcDNA3.1 (+) mammalian expression vector (V90-20, Invitrogen, Carlsbad, Calif.) and the plasmid was transfected into Chinese hamster ovary (CHO) cells. Lysate was prepared using M-PER (Mammalian Protein Extraction Reagent, ThermoFisher Scientific, Grand Island, N.Y.) in the presence of a protease inhibitor cocktail (P8340, Sigma, Saint Louis, Mo.). Each 100 mm dish (100% confluent, approximately 1×10^7 cells) was lysed with 250 μL of M-PER containing protease inhibitors. Protein concentration was determined using a Pierce BCA protein assay kit (ThermoFisher Scientific). Four micrograms of CHO/CGT lysate was incubated with various concentrations of a compound (0.001 μM-50 μM) in 10 mM HEPES (pH 7.2) containing 35 μM dioleoylphosphatidylcholine, 5 mM MgCl2, 5 mM MnCl2, 1% BSA, 15 mM KCl, 1 mM EGTA, 8 mM CHAPS, 10 μM C6-NBD-dihydro-ceramide and 17.5 μM UDP-galactose in a final reaction volume of 20 μL at 37° C. for 1 hour. The final concentration of DMSO was 0.5% in both compound-treated and mock-treated samples. Tween 80 (0.01%) was optionally added to the reaction mixture to help solubilize the compounds. Each individual reaction was diluted with 80 μL of methanol:acetronitrile (1:3) containing 5 μM N-docdecanoyl-NBD-galactosylceramide (internal standard) to stop the reaction. 200 μL H2O:acetonitile (1:1) was added to precipitate the protein. After sufficient mixing, the plates were centrifuged at 2469 g for 38 minutes, 200 μL of supernatant was transferred to a LC/MS 96-deep well plate and a second spin was performed at 2469 g for 10 minutes. The final supernatant was injected in triplicate for RapidFire/MS/MS analysis.
Quantitative Analysis Using the RapidFire/MS/MS Method:
The quantitative analysis of C6-NBD-dihydro-ceramide and C6-NBD-dihydro-galactosylceramide was performed on a Rapid Fire 360 high-throughput mass spectrometry system (Agilent Technologies, Palo Alto, Calif.) coupled with a API4000^+ triple quadrupole mass spectrometer (Applied Biosystems, Concord, Ontario, Canada). RapidFire software packages, including RapidFire Control panel, RapidFire UI and RapidFire Integrator (Agilent Technologies), were used to control the RapidFire instrument and to process data. Analyst 1.6.2 software packages (Applied Biosystems) were used to control the MS system and acquire MS data. […] of sample was loaded on a micro-scale C4 solid-phase extraction (SPE) cartridge (Agilent Technologies) and salts were removed using water supplemented with 0.1% formic acid at the flow rate of 1.5 mL/min for 3 sec. C6-NBD-dihydro-ceramide and C6-NBD-dihydro-galactosylceramide were co-eluted into the mass spectrometer using acetonitrile containing 0.1% formic acid at the flow rate of 1.0 mL/min for 3 sec. The total cycle time of one injection was 8 secs. The MS/MS detection was performed in ESI negative mode. The mass transition of C6-NBD-dihydro-galactosylceramide was m/z 752.6→678.6 using a −40 V collision energy, the mass transition of C6-NBD-dihydro-ceramide was m/z 590.6→115.8 using a −40 V collision energy and the mass transition of N-docdecanoyl-NBD-galactosylceramide was m/z 820.9→746.3 using a −45 V collision energy.
The C6-NBD-dihydro-galactosylceramide reading was normalized first by dividing the peak area of C6-NBD-dihydro-galactosylceramide by the peak area of the internal standard, N-docdecanoyl-NBD-galactosylceramide. IC50 values (see Table 1, where data ranges with one asterix (*) correspond to analysis using the RapidFire/MS/MS method, and data ranges with two asterixes (**) correspond to analysis using the RapidFire/MS/MS method with 0.01% Tween added) were generated from sigmoidal dose-response curves (variable slope) with GraphPad Prism software (GraphPad Software, Inc., San Diego, Calif.) using the normalized peak areas of C6-NBD-dihydro-galactosylceramide or the percent inhibition of C6-NBD-dihydro-galactosylceramide accumulation relative to DMSO control. […]
Work on `NC1CCN(C(=O)[C@@H](NC(=O)[C@@H](O)c2ccc3cc(OC4CCCC4)ccc3c2)C(F)(F)c2ccc(-c3ccc(Cl)cc3)cc2)CC1` [Compound 159-3, (S)—N—((R)-3-(4-aminopiperidin-1-yl)-1-(4′-chloro-[1,1′-biphenyl]-4-yl)-1,1-difluoro-3-oxopropan-2-yl)-2-(6-(cyclopentyloxy)naphthalen-2-yl)-2-hydroxyacetamide trifluoroacetate] yielded an IC50 of 1 to 10 µM. `NC1CCN(C(=O)[C@H](NS(=O)(=O)c2ccc(OCC3CCCCC3)cc2)C(F)(F)c2ccc(-c3ccc(Cl)cc3)cn2)CC1` [Compound 163-2, (S)—N-(3-(4-aminopiperidin-1-yl)-1-(5-(4-chlorophenyl)pyridin-2-yl)-1,1-difluoro-3-oxopropan-2-yl)-4-(cyclohexylmethoxy) benzenesulfonamide] showed an IC50 of 30 to 100 µM. `CC(C)Oc1cc(C(F)(F)[C@H](NS(=O)(=O)c2ccc3cc(OC4CCCC4)ccc3c2)C(=O)N2CCC(N)CC2)ccc1Cl` [Compound 172-1, (R)—N-(3-(4-aminopiperidin-1-yl)-1-(4-chloro-3-isopropoxyphenyl)-1,1-difluoro-3-oxopropan-2-yl)-6-(cyclopentyloxy)naphthalene-2-sulfonamide trifluoroacetate] gave an IC50 of 1 to 10 µM. `NC1CC2CCC(C1)N2C(=O)[C@@H](NC(=O)[C@@H](O)c1ccc2cc(OC3CCCC3)ccc2c1)C(F)(F)c1ccc2cc(Br)ccc2c1` (stereo partly drawn) [Compound 158-3, (2S)—N-((2R)-3-(3-amino-8-azabicyclo[3.2.1]octan-8-yl)-1-(6-bromonaphthalen-2-yl)-1,1-difluoro-3-oxopropan-2-yl)-2-(6-(cyclopentyloxy)naphthalen-2-yl)-2-hydroxyacetamide trifluoroacetate] showed an IC50 of 10 to 30 µM. For `C=C(c1ccc(C(F)(F)[C@@H](NS(=O)(=O)c2ccc3cc(OC4CCCC4)ccc3c2)C(=O)N2CCC(N)CC2)cc1)C(F)(F)F` [Compound 166-2, (S)—N-(3-(4-aminopiperidin-1-yl)-1,1-difluoro-3-oxo-1-(4-(3,3,3-trifluoroprop-1-en-2-yl)phenyl)propan-2-yl)-6-(cyclopentyloxy) naphthalene-2-sulfonamide], the IC50 was 1 to 10 µM. In the case of `COc1cc(C(F)(F)[C@H](NS(=O)(=O)c2ccc(OCC3CCCCC3)cc2)C(=O)N2CCC(N)CC2)ccc1-c1ccc(Cl)cc1` [Compound 146-1, (R)—N-(3-(4-aminopiperidin-1-yl)-1-(4′-chloro-2-methoxy-[1,1′-biphenyl]-4-yl)-1,1-difluoro-3-oxopropan-2-yl)-4-(cyclohexylmethoxy) benzenesulfonamide trifluoroacetate], the IC50 is reported as < 1 µM. `NC1CCN(C(=O)[C@@H](NS(=O)(=O)c2ccc3cc(OC4CCCC4)ccc3c2)C(F)(F)c2ccc(Cl)c(OC3CCCC3)c2)CC1` [Compound 170-1, (R)—N-(3-(4-aminopiperidin-1-yl)-1-(4-chloro-3-(cyclopentyloxy)phenyl)-1,1-difluoro-3-oxopropan-2-yl)-6-(cyclopentyloxy)naphthalene-2-sulfonamide trifluoroacetate] showed an IC50 of 1 to 10 µM. `NC1CC2CCC(C1)N2C(=O)[C@H](NC(=O)[C@H](O)c1ccc2cc(OC3CCCC3)ccc2c1)C(F)(F)c1ccc2cc(Br)ccc2c1` (stereo partly drawn) [Compound 158-4, (2R)—N-((2S)-3-(3-amino-8-azabicyclo[3.2.1]octan-8-yl)-1-(6-bromonaphthalen-2-yl)-1,1-difluoro-3-oxopropan-2-yl)-2-(6-(cyclopentyloxy)naphthalen-2-yl)-2-hydroxyacetamide trifluoroacetate] showed an IC50 of 30 to 100 µM. `NC(=NO)C1CCN(C(=O)[C@H](NS(=O)(=O)c2ccc3cc(OC4CCCC4)ccc3c2)C(F)(F)c2ccc(-c3ccc(Cl)cc3)cc2)CC1` [Compound 174-2, (S)-1-(3-(4′-chloro-[1,1′-biphenyl]-4-yl)-2-((6-(cyclopentyloxy)naphthalene)-2-sulfonamido)-3,3-difluoropropanoyl)-N′-hydroxypiperidine-4-carboximidamide] showed an IC50 of 30 to 100 µM. `N[C@H]1CCN(C(=O)[C@H](NS(=O)(=O)c2ccc3cc(OC4CCCC4)ccc3c2)C(F)(F)c2ccc(-c3ccc(Cl)cc3)cc2)CC1(F)F` [Compound 161-2, N—((S)-3-((S)-4-amino-3,3-difluoropiperidin-1-yl)-1-(4′-chloro-[1,1′-biphenyl]-4-yl)-1,1-difluoro-3-oxopropan-2-yl)-6-(cyclopentyloxy) naphthalene-2-sulfonamide trifluoroacetate] was tested, and the IC50 was 30 to 100 µM. `NC1CC2CCC(C1)N2C(=O)[C@@H](NS(=O)(=O)c1ccc2cc(OC3CC3)ccc2c1)C(F)(F)c1ccc(Br)cc1` (stereo partly drawn) [Compound 177-1, N-((2R)-3-(3-amino-8-azabicyclo[3.2.1]octan-8-yl)-1-(4-bromophenyl)-1,1-difluoro-3-oxopropan-2-yl)-6-cyclopropoxynaphthalene-2-sulfonamide trifluoroacetate] showed an IC50 of 1 to 10 µM. In the case of `NC1CC2CCC(C1)N2C(=O)[C@H](NC(=O)C(=O)c1ccc2cc(OC3CCCC3)ccc2c1)C(F)(F)c1ccc2cc(Br)ccc2c1` (stereo partly drawn) [Compound 160-2, N-((2S)-3-(3-amino-8-azabicyclo[3.2.1]octan-8-yl)-1-(6-bromonaphthalen-2-yl)-1,1-difluoro-3-oxopropan-2-yl)-2-(6-(cyclopentyloxy)naphthalen-2-yl)-2-oxoacetamide trifluoroacetate], the IC50 is reported as 30 to 100 µM. In the case of `COc1cc(C(F)(F)[C@H](NS(=O)(=O)c2ccc(OCC3CCCCC3)cc2)C(=O)N2C[C@H]3CNC[C@H]3C2)ccc1-c1ccc(Cl)cc1` [Compound 190-1, N-((R)-1-(4′-chloro-2-methoxy-[1,1′-biphenyl]-4-yl)-1,1-difluoro-3-((3aR,6aS)-hexahydropyrrolo[3,4-c]pyrrol-2(1H)-yl)-3-oxopropan-2-yl)-4-(cyclohexylmethoxy)benzenesulfonamide], the IC50 is reported as 1 to 10 µM. Compound `NC1CCN(C(=O)[C@@H](NS(=O)(=O)c2cc3ccc(OC4CCCC4)cc3s2)C(F)(F)c2ccc(-c3ccc(Cl)cc3)cc2)CC1` [Compound 164-1, (R)—N-(3-(4-aminopiperidin-1-yl)-1-(4′-chloro-[1,1′-biphenyl]-4-yl)-1,1-difluoro-3-oxopropan-2-yl)-6-(cyclopentyloxy)benzo[b]thiophene-2-sulfonamide] has an IC50 of 1 to 10 µM.

Same assay, conditions: CGT enzyme assay, RapidFire/MS/MS method with 0.01% Tween added (range with two asterisks **)
Work on `COc1cc(C(F)(F)[C@@H](NS(=O)(=O)c2ccc(OCC3CCCCC3)cc2)C(=O)N2C3CCC2CC(N)C3)ccc1-c1ccc(Cl)cc1` (stereo partly drawn) [Compound 142-2, N-((2S)-3-(3-amino-8-azabicyclo[3.2.1]octan-8-yl)-1-(4′-chloro-2-methoxy-[1,1′-biphenyl]-4-yl)-1,1-difluoro-3-oxopropan-2-yl)-4-(cyclohexylmethoxy)benzenesulfonamide trifluoroacetate] yielded an IC50 of 1 to 10 µM.
